US9926282B2, “Phthalazinones and isoquinolinones as rock inhibitors” (BRISTOL-MYERS SQUIBB COMPANY, priority 2013, dated 2018)

Key:
ROCK1 = ROCK1 (Homo sapiens (Human), UniProt Q13464); experiment: ROCK assay (LABCHIP peptide phosphorylation), ROCK1; type: biochemical; conditions: 5 μM ATP, 1.5 μM peptide substrate; read-out: ROCK1 IC50
ROCK2 = ROCK2 (Homo sapiens (Human), UniProt O75116); experiment: ROCK assay (LABCHIP peptide phosphorylation), ROCK2; type: biochemical; conditions: 5 μM ATP, 1.5 μM peptide substrate
ROCK2, sequence (O75116 whole entry, species assumed): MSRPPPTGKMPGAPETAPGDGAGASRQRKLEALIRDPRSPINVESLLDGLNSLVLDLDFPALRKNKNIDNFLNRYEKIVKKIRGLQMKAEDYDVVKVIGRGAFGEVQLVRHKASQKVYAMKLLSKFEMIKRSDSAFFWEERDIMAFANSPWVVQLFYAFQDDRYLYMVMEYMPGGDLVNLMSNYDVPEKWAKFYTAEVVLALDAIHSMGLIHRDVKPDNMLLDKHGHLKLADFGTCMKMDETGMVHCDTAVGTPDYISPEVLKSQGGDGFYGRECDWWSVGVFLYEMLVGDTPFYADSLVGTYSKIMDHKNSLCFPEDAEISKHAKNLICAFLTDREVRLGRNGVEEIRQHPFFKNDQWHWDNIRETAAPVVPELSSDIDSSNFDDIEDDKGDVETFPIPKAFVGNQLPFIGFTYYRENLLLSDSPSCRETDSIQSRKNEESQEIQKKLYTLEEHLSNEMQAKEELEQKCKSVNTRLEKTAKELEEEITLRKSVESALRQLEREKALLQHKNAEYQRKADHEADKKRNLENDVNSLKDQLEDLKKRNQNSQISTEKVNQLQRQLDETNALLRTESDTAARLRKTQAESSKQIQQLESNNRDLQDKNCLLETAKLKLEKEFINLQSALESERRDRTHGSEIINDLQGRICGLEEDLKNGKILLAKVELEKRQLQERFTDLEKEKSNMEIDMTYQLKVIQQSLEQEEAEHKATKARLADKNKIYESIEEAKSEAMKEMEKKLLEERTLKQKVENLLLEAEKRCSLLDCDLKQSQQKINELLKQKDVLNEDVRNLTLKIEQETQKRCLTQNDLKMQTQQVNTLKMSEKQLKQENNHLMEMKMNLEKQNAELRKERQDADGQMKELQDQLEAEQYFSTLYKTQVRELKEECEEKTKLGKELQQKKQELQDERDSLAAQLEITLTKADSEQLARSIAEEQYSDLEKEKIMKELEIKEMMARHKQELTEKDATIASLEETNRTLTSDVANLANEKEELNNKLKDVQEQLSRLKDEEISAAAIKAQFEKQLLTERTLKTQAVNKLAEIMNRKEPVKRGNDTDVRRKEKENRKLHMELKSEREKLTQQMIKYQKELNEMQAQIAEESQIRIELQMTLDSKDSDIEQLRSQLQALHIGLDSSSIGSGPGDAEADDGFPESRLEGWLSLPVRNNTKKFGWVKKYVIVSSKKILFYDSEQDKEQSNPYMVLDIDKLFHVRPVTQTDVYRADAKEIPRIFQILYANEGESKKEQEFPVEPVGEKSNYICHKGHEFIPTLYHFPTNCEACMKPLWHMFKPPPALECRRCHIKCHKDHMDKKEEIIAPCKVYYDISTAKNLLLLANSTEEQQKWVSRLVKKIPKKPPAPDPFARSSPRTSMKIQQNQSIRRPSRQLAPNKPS

ROCK1, sequence (Q13464 whole entry, species assumed): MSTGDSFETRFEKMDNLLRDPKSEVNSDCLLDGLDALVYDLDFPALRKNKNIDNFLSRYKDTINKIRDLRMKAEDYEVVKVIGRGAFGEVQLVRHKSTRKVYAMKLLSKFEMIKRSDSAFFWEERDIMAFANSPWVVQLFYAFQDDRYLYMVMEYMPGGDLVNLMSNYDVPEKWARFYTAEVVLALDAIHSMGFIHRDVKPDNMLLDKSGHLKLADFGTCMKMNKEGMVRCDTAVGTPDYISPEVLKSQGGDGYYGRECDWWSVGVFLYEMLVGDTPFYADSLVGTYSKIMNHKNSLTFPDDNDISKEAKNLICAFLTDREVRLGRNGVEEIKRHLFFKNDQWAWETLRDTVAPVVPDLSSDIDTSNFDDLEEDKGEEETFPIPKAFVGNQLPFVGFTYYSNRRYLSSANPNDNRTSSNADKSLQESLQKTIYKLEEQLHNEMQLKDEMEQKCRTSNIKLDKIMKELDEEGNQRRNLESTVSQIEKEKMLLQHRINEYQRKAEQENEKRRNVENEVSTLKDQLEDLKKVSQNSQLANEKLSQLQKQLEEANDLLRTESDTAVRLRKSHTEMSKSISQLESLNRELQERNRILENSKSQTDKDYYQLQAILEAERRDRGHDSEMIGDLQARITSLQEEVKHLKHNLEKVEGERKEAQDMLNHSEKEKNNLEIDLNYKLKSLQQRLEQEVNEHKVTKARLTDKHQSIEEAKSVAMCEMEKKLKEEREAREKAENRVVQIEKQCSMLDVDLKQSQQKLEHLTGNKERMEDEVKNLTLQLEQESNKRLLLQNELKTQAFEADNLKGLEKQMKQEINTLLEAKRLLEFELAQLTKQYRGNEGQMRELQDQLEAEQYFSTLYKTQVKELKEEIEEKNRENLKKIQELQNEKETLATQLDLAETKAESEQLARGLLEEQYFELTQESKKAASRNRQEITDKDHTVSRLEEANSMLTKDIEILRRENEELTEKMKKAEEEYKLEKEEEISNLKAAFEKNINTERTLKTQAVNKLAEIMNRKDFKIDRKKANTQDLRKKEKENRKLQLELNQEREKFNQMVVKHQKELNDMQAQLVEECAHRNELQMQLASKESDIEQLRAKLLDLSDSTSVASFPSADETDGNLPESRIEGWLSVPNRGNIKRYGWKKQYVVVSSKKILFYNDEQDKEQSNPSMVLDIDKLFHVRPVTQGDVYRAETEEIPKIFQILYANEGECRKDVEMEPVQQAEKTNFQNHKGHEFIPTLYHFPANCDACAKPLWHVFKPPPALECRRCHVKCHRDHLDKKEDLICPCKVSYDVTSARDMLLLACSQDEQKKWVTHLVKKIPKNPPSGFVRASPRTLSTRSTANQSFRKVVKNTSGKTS

| Compound | IC50 (ROCK1) | IC50 (ROCK2) |
| --- | --- | --- |
| O=C(Nc1ccc(-c2n[nH]c(=O)c3ccccc23)cc1)c1ccnn1-c1ccccc1 [Example 236, N-[4-(4-oxo-3,4-dihydrophthalazin-1-yl)phenyl]-1-phenyl-1H-pyrazole-5-carboxamide] | 101 to 1000 nM | 0.1 to 100 nM |
| O=C(Nc1ccc(-c2n[nH]c(=O)c3ccccc23)cc1)c1n[nH]c(-c2ccccn2)n1 [Example 237, N-[4-(4-oxo-3,4-dihydrophthalazin-1-yl)phenyl]-5-(pyridin-2-yl)-1H-1,2,4-triazole-3-carboxamide] | 101 to 1000 nM | 0.1 to 100 nM |
| COc1ccc(C#N)c(-n2cnc(C(=O)Nc3ccc(-c4n[nH]c(=O)c5ccccc45)cc3)n2)c1 [Example 239, 1-(2-cyano-5-methoxyphenyl)-N-[4-(4-oxo-3,4-dihydrophthalazin-1-yl)phenyl]-1H-1,2,4-triazole-3-carboxamide] | 101 to 1000 nM | 0.1 to 100 nM |
| O=C(Nc1ccc(-c2n[nH]c(=O)c3ccccc23)cc1)c1ncn(-c2ccccn2)n1 [Example 240, N-[4-(4-oxo-3,4-dihydrophthalazin-1-yl)phenyl]-1-(pyridin-2-yl)-1H-1,2,4-triazole-3-carboxamide] | 101 to 1000 nM | 0.1 to 100 nM |
| CN(C)c1ccc(C(=O)Nc2ccc(-c3c[nH]c(=O)c4ccccc34)cc2)cc1 [Example 245, 4-(Dimethylamino)-N-(4-(1-oxo-1,2-dihydroisoquinolin-4-yl)phenyl)benzamide] | 0.1 to 100 nM | 0.1 to 100 nM |
| COc1cc(C)c2c(c1)CCN2C(=O)Cc1ccc(-c2n[nH]c(=O)c3ccccc23)cc1 [Example 252, 4-(4-(2-(5-Methoxy-7-methylindolin-1-yl)-2-oxoethyl)phenyl)phthalazin-1(2H)-one] | 1000 to 50000 nM | 101 to 1000 nM |
| O=C(Cc1ccc(-c2n[nH]c(=O)c3ccccc23)cc1)N1CCc2cc(OC(F)(F)F)cc(Br)c21 [Example 253, 4-(4-(2-(7-Bromo-5-(trifluoromethoxy)indolin-1-yl)-2-oxoethyl)phenyl)phthalazin-1(2H)-one] | 1000 to 50000 nM | 101 to 1000 nM |
| COc1cc2c(-c3ccc(CC(=O)N4Cc5ccccc5C4)cc3)c[nH]c(=O)c2cc1OC [Example 255, 4-(4-(2-(Isoindolin-2-yl)-2-oxoethyl)phenyl)-6,7-dimethoxyisoquinolin-1(2H)-one] | 1000 to 50000 nM | 101 to 1000 nM |
| CC(C)Oc1ccc2c(c1)N(C(=O)Cc1ccc(-c3n[nH]c(=O)c4ccccc34)cc1)CC2 [Example 258, 4-(4-(2-(6-Isopropoxyindolin-1-yl)-2-oxoethyl)phenyl)phthalazin-1(2H)-one] | 0.1 to 100 nM | 0.1 to 100 nM |
| Cc1cc(CC(=O)N2CCc3ccccc32)ccc1-c1n[nH]c(=O)c2ccccc12 [Example 259, 4-(4-(2-(Indolin-1-yl)-2-oxoethyl)-2-methylphenyl)phthalazin-1(2H)-one] | 101 to 1000 nM | 0.1 to 100 nM |
| Cc1cc(CC(=O)N2Cc3ccccc3C2)ccc1-c1n[nH]c(=O)c2ccccc12 [Example 260, 4-(4-(2-(Isoindolin-2-yl)-2-oxoethyl)-2-methylphenyl)phthalazin-1(2H)-one] | 101 to 1000 nM | 0.1 to 100 nM |
| O=C(Cc1ccc(-c2n[nH]c(=O)c3ccccc23)c(F)c1)N1CCc2ccccc21 [Example 261, 4-(2-Fluoro-4-(2-(indolin-1-yl)-2-oxoethyl)phenyl)phthalazin-1(2H)-one] | 0.1 to 100 nM | 0.1 to 100 nM |
| COc1ccc2c(=O)[nH]cc(-c3ccc(CC(=O)N4Cc5ccccc5C4)cc3)c2c1 [Example 262, 4-{4-[2-(2,3-Dihydro-1H-isoindol-2-yl)-2-oxoethyl]phenyl}-6-methoxy-1,2-dihydroisoquinolin-1-one] | 101 to 1000 nM | 0.1 to 100 nM |
| Cc1cc(CC(=O)N2Cc3ccccc3C2)ccc1-c1c[nH]c(=O)c2ccccc12 [Example 263, 4-(4-(2-(Isoindolin-2-yl)-2-oxoethyl)-2-methylphenyl)isoquinolin-1(2H)-one] | 101 to 1000 nM | 0.1 to 100 nM |
| Cc1cc(CC(=O)N2CCc3ccccc32)ccc1-c1c[nH]c(=O)c2ccccc12 [Example 264, 4-(4-(2-(Indolin-1-yl)-2-oxoethyl)-2-methylphenyl)isoquinolin-1(2H)-one] | 0.1 to 100 nM | 0.1 to 100 nM |
| CC(C)(O)COc1ccc2c(c1)N(C(=O)Cc1ccc(-c3n[nH]c(=O)c4ccccc34)cc1)CC2 [Example 265, 4-(4-(2-(6-(2-Hydroxy-2-methylpropoxy)indolin-1-yl)-2-oxoethyl)phenyl)phthalazin-1(2H)-one] | 0.1 to 100 nM | 0.1 to 100 nM |
| COc1ccc2c(=O)[nH]cc(-c3ccc(NC(=O)N4CCc5ccccc54)cc3)c2c1 [Example 266, N-(4-(6-Methoxy-1-oxo-1,2-dihydroisoquinolin-4-yl)phenyl)indoline-1-carboxamide] | 0.1 to 100 nM | 0.1 to 100 nM |
| COc1ccc2c(c1)CN(C(=O)Oc1ccc(-c3c[nH]c(=O)c4ccc(OC)cc34)cc1)C2 [Example 267, 4-(6-Methoxy-1-oxo-1,2-dihydroisoquinolin-4-yl)phenyl 5-methoxyisoindoline-2-carboxylate] | 101 to 1000 nM | 0.1 to 100 nM |
| COc1ccc2c(=O)[nH]cc(-c3ccc(OC(=O)N4Cc5ccccc5C4)cc3)c2c1 [Example 269, 4-(6-Methoxy-1-oxo-1,2-dihydroisoquinolin-4-yl)phenyl isoindoline-2-carboxylate] | 1000 to 50000 nM | 0.1 to 100 nM |

Next, values leading:

| IC50 (ROCK1) | IC50 (ROCK2) | Compound |
| --- | --- | --- |
| 101 to 1000 nM | 101 to 1000 nM | CCn1cncc1C(=O)Nc1ccc(-c2n[nH]c(=O)c3ccccc23)cc1 [Example 233, 1-ethyl-N-[4-(4-oxo-3,4-dihydrophthalazin-1-yl)phenyl]-1H-imidazole-5-carboxamide] |
| 101 to 1000 nM | 0.1 to 100 nM | CC(C)(C)n1cc(NC(=O)c2ccncc2)c(C(=O)Nc2ccc(-c3n[nH]c(=O)c4ccccc34)cc2)n1 [Example 234, N-(1-tert-butyl-3-{[4-(4-oxo-3,4-dihydrophthalazin-1-yl)phenyl]carbamoyl}-1H-pyrazol-4-yl)pyridine-4-carboxamide] |
| 0.1 to 100 nM | 0.1 to 100 nM | Cc1cc(C(=O)Nc2ccc(-c3n[nH]c(=O)c4ccccc34)cc2)nn1C(C)(C)C [Example 235, 1-tert-butyl-5-methyl-N-[4-(4-oxo-3,4-dihydrophthalazin-1-yl)phenyl]-1H-pyrazole-3-carboxamide] |
| 101 to 1000 nM | 0.1 to 100 nM | Cc1nn(-c2cccc(Cl)c2Cl)nc1C(=O)Nc1ccc(-c2n[nH]c(=O)c3ccccc23)cc1 [Example 238, 2-(2,3-dichlorophenyl)-5-methyl-N-[4-(4-oxo-3,4-dihydrophthalazin-1-yl)phenyl]-2H-1,2,3-triazole-4-carboxamide] |
| 0.1 to 100 nM | 0.1 to 100 nM | Cc1nc(N2CCCc3ccccc32)sc1C(=O)Nc1ccc(-c2n[nH]c(=O)c3ccccc23)cc1 [Example 241, 4-methyl-N-[4-(4-oxo-3,4-dihydrophthalazin-1-yl)phenyl]-2-(1,2,3,4-tetrahydroquinolin-1-yl)-1,3-thiazole-5-carboxamide] |
| 101 to 1000 nM | 0.1 to 100 nM | Cc1nc(C(=O)Nc2ccc(-c3n[nH]c(=O)c4ccccc34)cc2)c[nH]1 [Example 242, 2-methyl-N-[4-(4-oxo-3,4-dihydrophthalazin-1-yl)phenyl]-1H-imidazole-4-carboxamide] |
| 0.1 to 100 nM | 0.1 to 100 nM | CN(C)c1cccc(C(=O)Nc2ccc(-c3c[nH]c(=O)c4ccccc34)cc2)c1 [Example 244, 3-(Dimethylamino)-N-[4-(1-oxo-1,2-dihydroisoquinolin-4-yl)phenyl]benzamide] |
| 0.1 to 100 nM | 0.1 to 100 nM | O=C(Nc1ccc(-c2c[nH]c(=O)c3ccccc23)cc1)c1nc2c(s1)CCCC2 [Example 246, N-(4-(1-Oxo-1,2-dihydroisoquinolin-4-yl)phenyl)-4,5,6,7-tetrahydrobenzo[d]thiazole-2-carboxamide] |
| 0.1 to 100 nM | 0.1 to 100 nM | O=C(Nc1ccc(-c2c[nH]c(=O)c3ccccc23)cc1)c1onc2ccccc12 [Example 247, N-(4-(1-Oxo-1,2-dihydroisoquinolin-4-yl)phenyl)benzo[c]isoxazole-3-carboxamide] |
| 101 to 1000 nM | 0.1 to 100 nM | Cn1c(C(=O)Nc2ccc(-c3c[nH]c(=O)c4ccccc34)cc2)cc2ccccc21 [Example 248, 1-Methyl-N-(4-(1-oxo-1,2-dihydroisoquinolin-4-yl)phenyl)-1H-indole-2-carboxamide] |
| 0.1 to 100 nM | 0.1 to 100 nM | O=C(Nc1ccc(-c2c[nH]c(=O)c3ccccc23)cc1)c1ccc(N2CCCCC2)cc1 [Example 249, N-(4-(1-Oxo-1,2-dihydroisoquinolin-4-yl)phenyl)-4-(piperidin-1-yl)benzamide] |
| 101 to 1000 nM | 0.1 to 100 nM | O=C(Nc1ccc(-c2c[nH]c(=O)c3ccccc23)cc1)c1ccc(N2CCCC2)cc1 [Example 251, N-(4-(1-Oxo-1,2-dihydroisoquinolin-4-yl)phenyl)-4-(pyrrolidin-1-yl)benzamide] |
| 101 to 1000 nM | 0.1 to 100 nM | CCOc1ccc2c(c1)N(C(=O)Cc1ccc(-c3c[nH]c(=O)c4ccccc34)cc1)CC2 [Example 254, 4-(4-(2-(6-Ethoxyindolin-1-yl)-2-oxoethyl)phenyl)isoquinolin-1(2H)-one] |
| 1000 to 50000 nM | 0.1 to 100 nM | COc1ccc2c(c1)N(C(=O)Nc1ccc(-c3c[nH]c(=O)c4cc(OC)c(OC)cc34)cc1)CC2 [Example 257, N-(4-(6,7-Dimethoxy-1-oxo-1,2-dihydroisoquinolin-4-yl)phenyl)-6-methoxyindoline-1-carboxamide] |
| 0.1 to 100 nM | 0.1 to 100 nM | COc1ccc2c(c1)N(C(=O)Nc1ccc(-c3c[nH]c(=O)c4ccc(OC)cc34)cc1)CC2 [Example 268, 6-Methoxy-N-(4-(6-methoxy-1-oxo-1,2-dihydroisoquinolin-4-yl)phenyl)indoline-1-carboxamide] |
| 0.1 to 100 nM | 0.1 to 100 nM | O=C(Cc1ccc(-c2n[nH]c(=O)c3ccccc23)cc1)N1CCc2ccc(OCc3cccnc3)cc21 [Example 270, 4-(4-{2-oxo-2-[6-(pyridin-3-ylmethoxy)-2,3-dihydro-1H-indol-1-yl]ethyl}phenyl)-1,2-dihydrophthalazin-1-one] |
